Paper PMC4014619, “Slc26a7 Chloride Channel Activity and Localization in Mouse Reissner’s Membrane Epithelium” (PLoS ONE, 2014)

Target: T1, Slc26a7 (Mus musculus, UniProt Q8R2Z3)
T1 construct: native full-length channel in Reissner's membrane epithelial cells (basolateral membrane); Slc26a7 knockout mice as control
T1 sequence (Q8R2Z3 1-656): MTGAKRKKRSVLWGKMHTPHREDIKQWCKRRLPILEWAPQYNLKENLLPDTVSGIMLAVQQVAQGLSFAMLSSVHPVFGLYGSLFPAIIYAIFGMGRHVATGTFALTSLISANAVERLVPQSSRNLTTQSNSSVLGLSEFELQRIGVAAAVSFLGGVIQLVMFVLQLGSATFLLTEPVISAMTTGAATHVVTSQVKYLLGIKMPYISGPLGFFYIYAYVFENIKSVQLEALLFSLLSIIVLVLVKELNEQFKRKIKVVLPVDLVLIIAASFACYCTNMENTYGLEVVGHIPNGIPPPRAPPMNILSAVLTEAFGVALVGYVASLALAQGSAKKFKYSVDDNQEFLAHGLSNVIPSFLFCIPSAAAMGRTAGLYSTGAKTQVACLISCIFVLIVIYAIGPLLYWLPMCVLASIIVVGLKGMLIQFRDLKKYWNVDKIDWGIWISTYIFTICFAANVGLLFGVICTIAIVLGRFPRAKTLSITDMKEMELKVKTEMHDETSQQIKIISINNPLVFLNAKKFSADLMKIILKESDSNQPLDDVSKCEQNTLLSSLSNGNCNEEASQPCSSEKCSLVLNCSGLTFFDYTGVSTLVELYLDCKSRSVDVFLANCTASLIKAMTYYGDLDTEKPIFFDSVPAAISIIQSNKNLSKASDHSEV
Assay: whole-cell patch clamp, wild-type versus Slc26a7 knockout native epithelial cells
Type: cell-based
Conditions: NMDG-Cl pipette, NO3-rich versus Cl-rich bath, +80 mV, pH 7.3, 37 °C; native cells with other anion channels present

## O=[N+]([O-])O [NO3 ^−]
  whole-cell patch clamp, wild-type versus Slc26a7 knockout native epithelial cell: elevated NO3 ^− current in wild-type cells being mediated by the Slc26a7 Cl^− channel
